Results taken from ChEMBL document CHEMBL1201862, “PubChem BioAssay data set” (2004).
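In this assay, cells in 96-well plates receive the compound at five concentrations for 48 hours. Endpoints are linearly interpolated between the surrounding concentrations. GI50: concentration for 50% inhibition of growth.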 Active and inactive are the calls of the source. Rule as the data show it: active = GI50 up to about 1.1 µM and inactive = higher. Where a SMILES comes first, the peptide text is derived from it. The star is where a group is joined. Boc = CC(C)(C)OC(=O)*

Assays:
Experiment in all cases: DTP human tumour cell line panel, 48 h
786-0 = tested on: 786-0
BT-549 = tested on: BT-549
HCT-116 = tested on: HCT-116
HOP-62 = tested on: HOP-62
HT-29 = tested on: HT-29
Hs-578T = tested on: Hs-578T
IGROV-1 = tested on: IGROV-1
K562 = tested on: K562
NCI-H23 = tested on: NCI-H23
NCI-H460 = tested on: NCI-H460
NCI-H522 = tested on: NCI-H522
OVCAR-3 = tested on: OVCAR-3
PC-3 = tested on: PC-3
SF-268 = tested on: SF-268
SK-MEL-2 = tested on: SK-MEL-2
UACC-257 = tested on: UACC-257
UACC-62 = tested on: UACC-62
UO-31 = tested on: UO-31
SR = tested on: SR
EKVX = tested on: EKVX

Measured: GI50

CCOC(=O)c1nc2ccc(C(F)(F)F)cc2nc1Nc1ccc(F)cc1
inactive: 786-0 45.3 µM | BT-549 > 100 µM | HCT-116 > 100 µM | HOP-62 58.9 µM | HT-29 > 100 µM | Hs-578T 21.9 µM | IGROV-1 87.7 µM | K562 > 100 µM | NCI-H23 40.3 µM | NCI-H460 28.9 µM | NCI-H522 54.6 µM | OVCAR-3 > 100 µM | PC-3 > 100 µM | SF-268 52.1 µM | SK-MEL-2 > 100 µM | UACC-257 > 100 µM | UACC-62 > 100 µM | UO-31 49.5 µM

COC(=O)C(Cc1c[nH]c2ccccc12)NC(=O)C(Cc1c[nH]c2ccccc12)NC(=O)C(Cc1c[nH]c2ccccc12)NC(=O)C(Cc1c[nH]c2ccccc12)NC(=O)C(Cc1c[nH]c2ccccc12)NC(=O)C(Cc1c[nH]c2ccccc12)NC(=O)C(Cc1c[nH]c2ccccc12)NC(=O)OC(C)(C)C (stereo not drawn) (Boc-WWWWWWW-OMe; configuration not given here)
inactive: 786-0 26.3 µM | BT-549 > 100 µM | HCT-116 33.3 µM | HOP-62 > 100 µM | HT-29 > 100 µM | IGROV-1 > 100 µM | K562 64.1 µM | NCI-H23 64.1 µM | NCI-H460 > 100 µM | NCI-H522 54.6 µM | OVCAR-3 > 100 µM | PC-3 > 100 µM | SF-268 > 100 µM | SK-MEL-2 17.1 µM | SR 48 µM | UACC-257 67.5 µM | UACC-62 51.5 µM | UO-31 44.9 µM

CCCCCCCCCCCCn1c(=O)cc(NCCCC)c2cc3c(NCCCC)cc(=O)n(CCCCCCCCCCCC)c3nc21
inactive: 786-0 > 100 µM | BT-549 > 100 µM | HCT-116 > 100 µM | HOP-62 53.8 µM | K562 > 100 µM | NCI-H23 > 100 µM | NCI-H460 > 100 µM | NCI-H522 > 100 µM | OVCAR-3 > 100 µM | PC-3 > 100 µM | SF-268 99.1 µM | SK-MEL-2 > 100 µM | UACC-257 > 100 µM | UACC-62 > 100 µM | UO-31 > 100 µM

CC(SC(=S)N1CCCC1)C(=O)Nc1nnc(-c2ccc(Cl)cc2)o1 (stereo not drawn)
inactive: 786-0 14.1 µM | BT-549 39.8 µM | HCT-116 19.5 µM | HOP-62 34.1 µM | HT-29 21.8 µM | Hs-578T 44.8 µM | IGROV-1 32 µM | K562 8.85 µM | NCI-H23 39.5 µM | NCI-H460 39.4 µM | OVCAR-3 32.7 µM | PC-3 35.6 µM | SF-268 18 µM | SK-MEL-2 30.5 µM | UACC-257 40.4 µM | UACC-62 30.5 µM | UO-31 19.2 µM

COc1ccccc1-c1cc(O)c2ccc(C)nc2n1
inactive: BT-549 > 100 µM | EKVX 97.3 µM | HOP-62 > 100 µM | HT-29 26.6 µM | Hs-578T > 100 µM | IGROV-1 40.6 µM | K562 58.9 µM | NCI-H23 > 100 µM | NCI-H522 56.6 µM | SF-268 > 100 µM | SK-MEL-2 > 100 µM | UACC-257 > 100 µM | UACC-62 > 100 µM | UO-31 > 100 µM

Cc1ccc(C(=O)c2[nH]c(NCc3ccccc3)c(C(=S)Nc3ccccc3)c2N)cc1
inactive: 786-0 5.9 µM | BT-549 7.94 µM | EKVX 13.6 µM | HCT-116 4.35 µM | HOP-62 15.5 µM | HT-29 3.24 µM | IGROV-1 7.35 µM | K562 2.13 µM | NCI-H23 13.3 µM | NCI-H460 5.64 µM | NCI-H522 2.21 µM | OVCAR-3 11.8 µM | PC-3 11.9 µM | SF-268 12.9 µM | SK-MEL-2 10.8 µM | UACC-257 5.75 µM | UACC-62 11.8 µM | UO-31 5.32 µM

CC1CC/C(=C\c2ccc(F)cc2)C(=O)/C1=C/c1ccc(F)cc1 (stereo not drawn)
inactive: 786-0 2.9 µM | BT-549 3.58 µM | EKVX 3.67 µM | HCT-116 2.5 µM | HT-29 2.92 µM | Hs-578T 6.58 µM | IGROV-1 3.04 µM | K562 3.76 µM | NCI-H23 6.44 µM | OVCAR-3 5.7 µM | PC-3 5.2 µM | SF-268 3.6 µM | SK-MEL-2 4.83 µM | UACC-257 15.7 µM | UACC-62 11.6 µM | UO-31 11.1 µM

COc1ccc(N2C(=O)C3c4[nH]c5c(C)cccc5c4C4CCC(C(C)(C)C)CC4C3C2=O)cc1 (stereo not drawn)
inactive: EKVX 5.18 µM | HCT-116 5.01 µM | HOP-62 > 10 µM | HT-29 2.32 µM | Hs-578T 8.17 µM | IGROV-1 > 10 µM | K562 4.51 µM | NCI-H23 4.19 µM | NCI-H460 2.83 µM | NCI-H522 > 10 µM | OVCAR-3 > 10 µM | PC-3 3.61 µM | SF-268 5.61 µM | SK-MEL-2 > 10 µM | SR 3.44 µM | UACC-62 > 10 µM | UO-31 2.72 µM
